In brackets after ≈: the same amount, converted by molar mass.
Details: buffer; pH 7.4; 200.0 µM

SMILES	solubility kinetic
CC(=O)N1CCN(C(=O)COC(=O)/C=C/c2ccccc2[N+](=O)[O-])CC1	> 54.2 µg/mL
CCc1noc(C)c1C(=O)OCC(=O)Nc1ccc(F)cc1Cl	10.8 µg/mL (≈ 31.7 µM)
Cc1ccc(C2=NOC3(CC(=O)N(c4ccccc4)C3=O)C2)cc1 (stereo not given)	45.2 µg/mL (≈ 141 µM)
COc1ccc(NC(=S)N(C)CC2COc3ccccc3O2)cc1 (stereo not given)	2.6 µg/mL (≈ 7.55 µM)
CCOC(=O)c1c(NC(=O)COC(=O)C2CC2C)sc(C)c1C (stereo not given)	< 0.7 µg/mL
CN(C)/C=C1\C(=O)N(c2ccc(F)cc2F)C(c2cccnc2)S1(=O)=O (stereo not given)	> 56.9 µg/mL
Cc1ccc(N2C(=O)c3ccccc3C(C)(C)C2=O)cc1	12.8 µg/mL (≈ 45.8 µM)
O=C(CO/N=C/c1ccc(OC(F)F)cc1)NC1CCCCC1	6.7 µg/mL (≈ 20.5 µM)
CCOc1cc(C(=O)Nc2ccc(S(=O)(=O)Nc3onc(C)c3C)cc2)cc(OCC)c1OCC	> 75.5 µg/mL
CCOC(=O)c1cc2c(cn1)[nH]c1ccccc12	7.5 µg/mL (≈ 31.2 µM)
O=S1(=O)N=C(Nc2ccc(O)cc2)c2ccccc21	11 µg/mL (≈ 40.1 µM)
CN(C)c1ccc(NC(=O)Cc2ccccc2)c2ccccc12	5.3 µg/mL (≈ 17.4 µM)
FC(F)(F)c1cc(NC2CCCCC2)ccn1	28 µg/mL (≈ 115 µM)
Cc1ccc(C(=O)COC(=O)c2cccc([N+](=O)[O-])c2)s1	7.1 µg/mL (≈ 23.3 µM)
CN1C(=O)N(C)c2cccc3cccc1c23	0.8 µg/mL (≈ 3.77 µM)
CC(C)CC1(C)NC(=O)N(CC(=O)Nc2ccccc2Br)C1=O (stereo not given)	> 57.3 µg/mL
COc1ccccc1C(=O)NC1CCN(C(=O)Nc2ccc(C)cc2)CC1	46.8 µg/mL (≈ 127 µM)
Cn1ccnc1C(O)(c1ccccc1)c1nccn1C	> 40.2 µg/mL
COc1ccc(CC(=O)Nc2cccnc2)cc1	> 36.3 µg/mL
COc1cc2ccccc2cc1C(=O)NC1CCCC1	> 40.4 µg/mL

SMILES	solubility kinetic
CN1CCN(c2ccc([N+](=O)[O-])c(Sc3ccccn3)c2)CC1	> 49.6 µg/mL
O=C1NC2(CCCCC2)C(=O)N1Cc1cccc(C(F)(F)F)c1	8.4 µg/mL (≈ 25.7 µM)
Cc1ccc(NC(=O)COC(=O)c2cc(=O)c3ccccc3o2)c(Br)c1	> 62.4 µg/mL
NC(=O)C(Cc1ccccc1)NC(=O)C12CC3CC(CC(C3)C1)C2 (stereo not given)	48.1 µg/mL (≈ 147 µM)
Cn1c(=O)c(=O)n(C)c2cc([N+](=O)[O-])c([N+](=O)[O-])cc21	> 42 µg/mL
CN(C)S(=O)(=O)c1cccc(C(=O)NCCCn2ccnc2)c1	> 50.5 µg/mL
CC(=O)Nc1ccc(S(=O)(=O)NCCN2CCNC2=O)cc1Cl	> 54.1 µg/mL
Cc1ccc(Nc2nc(N)c(C#N)c(CC#N)c2C#N)cc1	1.6 µg/mL (≈ 5.55 µM)
O=c1[nH]c2ccccc2c2oc(CCl)nc12	12.5 µg/mL (≈ 53.3 µM)
O=C(NCc1cccnc1)C(=O)Nc1ccc2c(c1)OCO2	42.7 µg/mL (≈ 143 µM)
CCNC(=S)N1CCC(n2cnc3ccccc32)CC1	> 43.3 µg/mL
CN1C(=O)C(C)(C)N(C(=O)c2cccc([N+](=O)[O-])c2)c2ccccc21	29.5 µg/mL (≈ 86.9 µM)
CC1CC(C(=O)Nc2ccccc2)C(=O)O1 (stereo not given)	27.2 µg/mL (≈ 124 µM)
Oc1cncc(Cc2ccccc2)c1	> 27.8 µg/mL
CC(=O)c1ccc(OCC(O)CNCc2ccc3c(c2)OCO3)cc1 (stereo not given)	46.2 µg/mL (≈ 135 µM)
CCC(C)[C@H](NC(=O)N1CCCCCC1)C(=O)O (stereo not given in full)	> 38.5 µg/mL
Cc1[nH]c(=O)nc(SCc2ccc(Cl)c(Cl)c2)c1C#N	3.4 µg/mL (≈ 10.4 µM)
O=C(NCCCn1ccnc1)/C(=C/c1ccco1)NC(=O)c1ccco1	> 53.2 µg/mL
C=CCc1c(C)[nH]c(=O)[nH]c1=O	> 24.9 µg/mL
O=C(NC1=NCCS1)c1ccccc1	21.4 µg/mL (≈ 104 µM)

SMILES	solubility kinetic
CC(=O)Nc1ccc(Sc2ccccc2C(=O)O)cn1	> 43.2 µg/mL
COc1ccc2cc(C#N)c(Nc3cccc(F)c3)nc2c1	< 0.2 µg/mL
Cc1cc(C)c(S(=O)(=O)N2CCCCC2C(=O)O)c(C)c1 (stereo not given)	> 46.7 µg/mL
Cc1ccc(C(=O)Nc2cccc3ccccc23)o1	25.9 µg/mL (≈ 103 µM)
Cn1c(C(=O)N2CCOCC2)cc2c(=O)n3ccccc3nc21	> 46.8 µg/mL
O=S(=O)(Nc1ccc(F)cc1)c1ccc(S(=O)(=O)N2CCOCC2)cc1	12.6 µg/mL (≈ 31.5 µM)
CN(c1ccccc1)c1nc(N)c([N+](=O)[O-])c(N2CCCC2)n1	20.9 µg/mL (≈ 66.5 µM)
N#Cc1c(N)nc(Sc2ccc(Cl)cc2)c(C#N)c1-c1ccccc1Cl	< 0.2 µg/mL
O=[N+]([O-])c1ccc(C(O)CN2CCN(c3ccccc3)CC2)cc1 (stereo not given)	3 µg/mL (≈ 9.16 µM)
COc1ccccc1CC(=O)Nc1sc2c(c1C(N)=O)CCCC2	2 µg/mL (≈ 5.81 µM)
Cc1nc(-c2ccc3c(c2)OCCCO3)cs1	29.1 µg/mL (≈ 118 µM)
Cc1ccc2c(c1)Cc1nc3ccccc3nc1-2	1.9 µg/mL (≈ 8.18 µM)
Cc1ccc(CNC(=O)c2cc(Cl)cc(Cl)c2)n1C	11.1 µg/mL (≈ 37.4 µM)
O=S(=O)(Nc1ccc2ccccc2n1)c1ccccc1	> 42.6 µg/mL
O=C(CN1CCCCC1)Nc1ccc(C(F)(F)F)cc1Cl	2.5 µg/mL (≈ 7.79 µM)
Cc1[nH]c2ccccc2c1CC#N	21.3 µg/mL (≈ 125 µM)
O=C(Nc1ccc(F)cc1)Oc1ccccc1N1CCOCC1	8.1 µg/mL (≈ 25.6 µM)
COc1ccc(OCCN2C(=O)c3ccccc3C2=O)c([N+](=O)[O-])c1	1 µg/mL (≈ 2.92 µM)
OC[C@@H](O)C1OC2NC(=S)OC2C1O (stereo not given in full)	> 33.2 µg/mL
O=C(/C=C/c1ccccc1)Nc1ccc(NC(=O)c2cccs2)cc1	< 0.4 µg/mL
